The test system of one data set is CD4 T cell proliferation. Description: CD4 T cell proliferation by CFSE dilution, anti-CD3 stimulation. The class given is cell-based, human. The note with it: concentrations up to 1 μM; anti-CD3, CFSE dilution, day 4, 0.3% DMSO/0.3% PBS control. As for the experimental part: (§1) Figure 2. […] CD4 T cell proliferation was assessed upon stimulation with anti-CD3ϵ by CFSE dilution as a measure for cellular proliferation, analyzed on day 4. For rapamycin and AX-024–treated cells, the dashed line indicates control proliferation at a DMSO concentration of 0.2%. For CD3ϵ-derived peptides 11Rwt, 11R085, and 11Rscr, the dashed line indicates control proliferation at 0.3% DMSO, 0.3% PBS. 11Rwt has sequence R11-G3-[…], 11R085 R11-G3-Q(dK)[…], and 11Rscr R11-G3-[…](dK)PQP. A polyarginine tag is used to enable cell penetration of the peptides ([10]). The gray boxes indicate concentrations of compound leading to decreased cell viability. These values should be disregarded. Binding of peptides 11Rwt and 11R085, but not 11Rscr, to Nck-SH3.1 was confirmed by NMR spectroscopy (Fig. S1). Asterisks, p < 0.05 as determined by a repeated-measure one-way analysis of variance with Holm–Sidak's multiple-comparison test to DMSO/PBS. Dotted lines, mean DMSO/PBS values. Error bars, S.D.
(§2) Fresh human peripheral blood mononuclear cells (PBMCs) from healthy donors (n = 4) were prepared from buffy coats. CD3^+ T cells were isolated by immunomagnetic separation (negative selection, StemCell, lot 18A87710), carboxyfluorescein succinimidyl ester (CFSE)-labeled, resuspended in StemCell Immunocult^TM-XF T cell expansion medium, and treated with compounds or vehicle for 2 h at room temperature. The isolated CD3^+ T cells were stained for CD3, CD4, and CD8, and their purity was assessed by flow cytometry. Cells were then cultured in a 96-well flat-bottomed plate (10^5 cells/well), precoated for 1 h at 37 °C with 0.2 μg·ml^−1 plate-bound anti-CD3 (clone OKT3, BioLegend). […] Cells were cultured in the presence of AX-024, rapamycin, peptide 11Rwt, peptide 11R85, peptide 11Rscr (derived from Ref. [11]; see below for sequences), or vehicle for 4 days. At the end of culture, cells were stained for viability, and CFSE dilution was assessed by flow cytometry (with gating on CD4 versus CD8).

In a further data set the test system is CD8 T cell proliferation. Description: CD8 T cell proliferation by CFSE dilution. It is filed as cell-based, human. The note with it: concentrations low enough to avoid cytotoxic effects; data not shown. As for the experimental part:
as §2

Data set [1] addresses T1, Nck1-SH3.1 (Homo sapiens, UniProt P16333).
T1 construct: His10-Avi-TEV-Nck1-SH3.1 (residues 1–61, MM 11,847 Da) was biotinylated and immobilized via streptavidin; made in house; host or cells: Escherichia coli BL21 (DE3)
Description: NMR binding of poly-Arg CD3ϵ-derived peptides to Nck1-SH3.1. The note with it: Fig. S1. As for the experimental part:
NMR spectra were recorded on a Bruker 600-MHz Avance NEO spectrometer equipped with a cryogenic QCI probe head at 27 °C in 25 mM […], 150 mM NaCl. The Topspin 4.0 software (Bruker, Fällanden) was used for spectrometer operation and data processing. For ^1H ligand-observed measurements, a relaxation filtered pulse sequence utilizing a spinlock of 50 ms was applied. 1D spectra were acquired with 128 scans, a sweep width of 26 ppm, and an acquisition time of 2 s. 2D ^1H-^15N HSQC spectra with natural ^15N isotope abundance were recorded over 72 h with a spectral width of 16 ppm and 35 ppm in the proton and nitrogen dimensions, respectively, with 256 increments (complex) and 1000 scans per increment. A relaxation delay of 1 s was used between scans. For the DOSY measurements (reviewed in Ref. [51]), the Bruker pulse sequence ledbpgp2s with a diffusion delay of 50 ms and a gradient length of 600 μs was used. The gradient strength was varied from 5 to 95% to record 16 increments of 512 scans with a sweep width of 18 ppm and a relaxation delay of 1 s.
Samples for ligand-observed measurements were prepared in 25 mM sodium phosphate buffer, pH 6.5, 150 mM NaCl. One sample contained 50 μM AX-024, and the other contained 50 μM CD3ϵ peptide.

In the next data set the test system is CD4 T cell. In words: Cytotoxicity / viability of CD4 T cells in proliferation assay. The class given is cell-based, human. The note with it: 4 days, decreased cell viability (gray boxes in Fig. 2). As for the experimental part:
as §1, §2

Data set [2] deals with T1, Nck1-SH3.1. In words: SPR binding to immobilized Nck1-SH3.1. The note with it: SPR, peptide up to 200 μM, Nck1-SH3.1 1260 RU, single titration, qualitative. As for the experimental part:
SPR experiments were conducted on a T200 Biacore instrument (GE Healthcare, Uppsala, Sweden) at 20 °C in 10 mM HEPES/NaOH, pH 7.8, 150 mM NaCl, 1 mM TCEP. […] Streptavidin is immobilized on the CAP sensor by way of double-strand DNA formation. A ssDNA is covalently coupled to the sensor surface, and a complementary DNA strand, covalently linked to streptavidin, is hybridized. To regenerate the surface, the DNA duplex is dissociated by washing with high-ionic strength solution. […] The reference channel for binding studies contained the same streptavidin-coated surface blocked with biotin.
Five replicates were performed for each CD3ϵ concentration (Table S1), whereas for the qualitative assessment of the APVA variant, only a single titration was performed.
SPR equilibrium signals were corrected for the signal in the reference channel and buffer contributions. The resulting SPR amplitudes were plotted as a function of peptide concentration, and a simple binding equation describing a Langmuir adsorption isotherm was fit to the data (GraphPad Prism) to extract the equilibrium dissociation constant Kd. (Eq. 1) RU=RUmax·[peptide]/[peptide]+Kd

Take “R11-G3-Q(dK)KECPPPVPKRDY [11R085, R11-G3-tagged cell-penetrating CD3ϵ-derived peptide]”: the “inhibition of CD4 T cell proliferation by peptides” value (“inhibition” for short) in the data set with CD4 T cell proliferation is on record as “none of the peptides inhibited CD4 T cell proliferation”. The “effect on CD8 T cell proliferation” value in the data set on CD8 T cell proliferation is “did not affect CD8 T cell proliferation”. Besides, the “binding to Nck1-SH3.1 by NMR” value on Nck1-SH3.1 [1] was “bind to Nck1-SH3.1”. Besides, the “concentration at which peptides were cytotoxic” value (shortened to “concentration”) in the data set on CD4 T cell is recorded as “exceeding 6 μM”.

For the substance “RGQNKERPAPVANPDY-NH2 [APVA variant of CD3ϵ peptide]”, at Nck1-SH3.1 [2], the “fold weaker binding of APVA mutant than WT CD3ϵ peptide” value is reported as ~10 -fold.

Regarding “R11-G3-RGYNKERPPPVPNPDY [11Rwt, R11-G3-tagged cell-penetrating CD3ϵ-derived peptide]”, the “inhibition” value in the data set on CD4 T cell proliferation is “none of the peptides inhibited CD4 T cell proliferation”. Moreover, in the data set with CD8 T cell proliferation, the “effect on CD8 T cell proliferation” value was “did not affect CD8 T cell proliferation”. Besides, at Nck1-SH3.1 [1], the “binding to Nck1-SH3.1 by NMR” value is “bind to Nck1-SH3.1”. Besides, the “concentration” value in the data set on CD4 T cell is listed as “exceeding 6 μM”.

Consider “R11-G3-PKVRECPDYK(dK)PQP [11Rscr, scrambled peptide with the same composition as 11R085 but lacking the canonical PRS]”, for which the “inhibition” value in the data set with CD4 T cell proliferation is reported as “none of the peptides inhibited CD4 T cell proliferation”. Further, the “effect on CD8 T cell proliferation” value in the data set with CD8 T cell proliferation is listed as “did not affect CD8 T cell proliferation”. Besides, the “binding to Nck1-SH3.1 by NMR” value at Nck1-SH3.1 [1] is given as “does not”. The “concentration” value in the data set on CD4 T cell is “exceeding 6 μM”.

(Values after publication PMC7278359, “Small molecule AX-024 reduces T cell proliferation independently of CD3ϵ/Nck1 interaction, which is governed by a domain swap in the Nck1-SH3.1 domain” (The Journal of Biological Chemistry, 2020).)
